{"source": "patent US20220241222A1", "about": "“ATOMOXETINE HYDROCHLORIDE EXTENDED RELEASE COMPOSITIONS AND METHODS OF USE” (CELISTA PHARMACEUTICALS LLC, priority 2019, published 2022)", "origin": "cited, not measured here", "key": {"[1]": {"conditions": "for mean apparent plasma clearance / mean half-life: oral administration"}, "[2]": {"conditions": "CYP2D6 poor metabolizers vs EMs"}, "[3]": {"conditions": "primarily as 4-hydroxyatomoxetine-O-glucuronide"}, "[4]": {"conditions": "oral, immediate release capsules"}}, "note": "Read-outs that look alike come from different tables or passages of the source."}
{"smiles": "Cc1ccccc1O[C@H](CCN)c1ccccc1", "note": "[N-desmethylatomoxetine, N-Desmethylatomoxetine]", "values": [{"measurement": "plasma concentrations compared with atomoxetine", "setting": "[1]; circulating metabolite", "result": "lower concentrations"}]}
{"smiles": "CNCC[C@@H](Oc1ccccc1C)c1ccccc1", "note": "[atomoxetine, (−)-N-Methyl-3-phenyl-3-(o-tolyloxy)-propylamine]", "values": [{"measurement": "AUC of atomoxetine, PMs greater than EMs", "setting": "[1]; [2]", "result": "approximately 10 fold"}, {"measurement": "Css, max, PMs greater than EMs", "setting": "[1]; [2]", "result": "about 5 fold"}, {"measurement": "mean apparent plasma clearance", "setting": "[1]; PMs", "result": 0.5, "unit": "mL/min/kg"}, {"measurement": "mean half-life", "setting": "[1]; PMs", "result": 21.6, "unit": "h"}, {"measurement": "mean apparent plasma clearance", "setting": "[1]; adult EMs", "result": 5.83, "unit": "mL/min/kg"}, {"measurement": "mean half-life", "setting": "[1]; adult EMs", "result": 5.2, "unit": "h"}, {"measurement": "excretion in the feces", "setting": "[1]; [3]", "result": "less than 17 % of the dose"}, {"measurement": "excretion in the urine", "setting": "[1]; [3]", "result": "greater than 80 % of the dose"}, {"measurement": "pressor response", "setting": "patients with central autonomic impairment (multiple system atrophy)", "result": "large pressor responses"}, {"measurement": "seated and standing systolic blood pressure compared to placebo", "setting": "pediatric dose of 18 mg", "result": "significantly increases"}]}
{"smiles": "CNCC[C@@H](Oc1ccccc1C)c1ccccc1.Cl", "note": "[Atomoxetine hydrochloride, (−)-N-Methyl-3-phenyl-3-(o-tolyloxy)-propylamine hydrochloride]", "values": [{"measurement": "absolute bioavailability", "setting": "[1]; extensive metabolizers", "result": 63, "unit": "%"}, {"measurement": "absorption after oral administration", "setting": "[1]; from immediate release capsules", "result": "well-absorbed"}, {"measurement": "effect of food on absorption", "setting": "[1]; [4]", "result": "minimally affected by food"}, {"measurement": "estimated half-life", "setting": "[1]; [4]", "result": "about 5 hours"}, {"measurement": "absolute bioavailability", "setting": "[1]; poor metabolizers", "result": 94, "unit": "%"}]}
